Experiments:
Recombinant human HDAC6 = target: T1, Recombinant human HDAC6 (Homo sapiens, UniProt Q9UBN7); assay: HDAC6 biochemical assay, AMC-labeled peptide substrate; settings: HDAC6; read-out: HDAC Isoform IC50 (nM) 6
T1 construct: full length, MW=159 kDa; GST (N); host or cells: Sf9 insect cells (baculovirus)
T1 sequence (Q9UBN7 1-1215): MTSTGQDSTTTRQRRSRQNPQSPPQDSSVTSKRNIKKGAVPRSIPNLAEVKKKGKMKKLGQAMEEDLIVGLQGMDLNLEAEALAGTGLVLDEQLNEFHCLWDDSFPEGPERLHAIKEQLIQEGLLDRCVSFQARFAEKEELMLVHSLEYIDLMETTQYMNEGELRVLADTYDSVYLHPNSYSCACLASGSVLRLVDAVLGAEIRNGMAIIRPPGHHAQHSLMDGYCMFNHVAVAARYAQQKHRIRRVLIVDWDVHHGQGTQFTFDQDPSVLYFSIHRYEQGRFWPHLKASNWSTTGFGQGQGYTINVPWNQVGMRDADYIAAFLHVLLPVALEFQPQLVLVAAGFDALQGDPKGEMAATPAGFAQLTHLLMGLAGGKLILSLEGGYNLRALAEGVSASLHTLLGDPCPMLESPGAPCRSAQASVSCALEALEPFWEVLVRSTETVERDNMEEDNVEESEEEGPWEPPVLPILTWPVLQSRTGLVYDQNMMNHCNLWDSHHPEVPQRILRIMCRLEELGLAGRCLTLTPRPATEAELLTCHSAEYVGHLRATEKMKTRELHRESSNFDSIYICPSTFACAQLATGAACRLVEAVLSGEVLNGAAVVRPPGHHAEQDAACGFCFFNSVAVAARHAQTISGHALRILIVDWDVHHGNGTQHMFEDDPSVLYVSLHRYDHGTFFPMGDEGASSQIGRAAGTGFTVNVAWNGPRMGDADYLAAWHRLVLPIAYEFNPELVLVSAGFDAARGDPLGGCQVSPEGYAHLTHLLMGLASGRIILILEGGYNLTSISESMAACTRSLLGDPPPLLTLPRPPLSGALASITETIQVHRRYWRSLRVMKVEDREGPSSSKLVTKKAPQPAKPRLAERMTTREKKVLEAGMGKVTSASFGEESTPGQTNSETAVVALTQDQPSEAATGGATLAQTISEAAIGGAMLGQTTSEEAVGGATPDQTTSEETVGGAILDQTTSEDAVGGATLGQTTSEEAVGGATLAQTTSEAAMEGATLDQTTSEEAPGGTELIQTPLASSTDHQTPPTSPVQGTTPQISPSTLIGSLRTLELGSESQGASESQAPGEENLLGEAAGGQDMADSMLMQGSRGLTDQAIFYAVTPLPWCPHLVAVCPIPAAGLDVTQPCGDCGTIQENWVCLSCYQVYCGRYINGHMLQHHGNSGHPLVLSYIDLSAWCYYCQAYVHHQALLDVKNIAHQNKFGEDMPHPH
Summary of the method: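 Two-step fluorogenic read-out: enzyme deacetylates 50 μM RHKK(Ac)AMC for 1 h at 30° C in pH 8.0 Tris buffer with BSA and 1% DMSO, then developer cleavage gives signal at Ex 360/Em 460. Enzyme: 0.3 ng/ul recombinant full-length human HDAC6, GST-tagged, Sf9-expressed.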

Human HDAC1 = target: T2, Human HDAC1 (Homo sapiens, UniProt Q13547); assay: HDAC1 biochemical assay, AMC-labeled peptide substrate; settings: read-out: HDAC Isoform IC50 (nM) 1
T2 construct: full length with C-terminal His-tag and C-terminal FLAG-tag; His (C); FLAG (C); host or cells: baculovirus expression system
Summary of the method: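 Baculovirus-expressed full-length human HDAC1 with His and FLAG tags, 0.3 ng/ul, incubated 1 h at 30° C with compound and 50 μM RHKK(Ac)AMC in Tris pH 8.0 buffer with BSA and 1% DMSO. Developer then releases AMC from deacetylated substrate; fluorescence read at 360/460 nm.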

Human HDAC7 = target: T3, Human HDAC7 (Homo sapiens, UniProt Q8WUI4); assay: HDAC7 biochemical assay, class IIa-specific substrate; settings: read-out: HDAC Isoform IC50 (nM) 7
T3 construct: (a.a. 518-end) with N-terminal GST tag; GST (N); host or cells: baculovirus expression system
T3 sequence (Q8WUI4 518-952 limits assumed): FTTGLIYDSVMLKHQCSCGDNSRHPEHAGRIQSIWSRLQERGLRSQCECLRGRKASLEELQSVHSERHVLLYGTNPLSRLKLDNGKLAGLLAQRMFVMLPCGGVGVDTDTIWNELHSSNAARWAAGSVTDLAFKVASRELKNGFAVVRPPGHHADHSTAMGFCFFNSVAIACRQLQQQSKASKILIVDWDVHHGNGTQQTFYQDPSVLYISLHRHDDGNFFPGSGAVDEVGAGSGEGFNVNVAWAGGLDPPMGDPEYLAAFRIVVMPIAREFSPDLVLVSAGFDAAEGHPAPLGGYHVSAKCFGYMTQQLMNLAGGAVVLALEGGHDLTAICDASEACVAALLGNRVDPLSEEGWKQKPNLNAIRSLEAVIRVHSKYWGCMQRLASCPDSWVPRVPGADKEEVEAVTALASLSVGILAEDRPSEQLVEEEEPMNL
Summary of the method: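 GST-tagged HDAC7 (a.a. 518-end, baculovirus-expressed) at 0.001 ng/ul with 50 μM Boc-Lys(trifluoroacetyl)-AMC substrate, 30 min at room temperature in pH 8.0 Tris buffer with BSA, 1% DMSO final. Developer then releases AMC; fluorescence read at 360/460 nm.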

T2 sequence (Q13547 whole entry, canonical isoform): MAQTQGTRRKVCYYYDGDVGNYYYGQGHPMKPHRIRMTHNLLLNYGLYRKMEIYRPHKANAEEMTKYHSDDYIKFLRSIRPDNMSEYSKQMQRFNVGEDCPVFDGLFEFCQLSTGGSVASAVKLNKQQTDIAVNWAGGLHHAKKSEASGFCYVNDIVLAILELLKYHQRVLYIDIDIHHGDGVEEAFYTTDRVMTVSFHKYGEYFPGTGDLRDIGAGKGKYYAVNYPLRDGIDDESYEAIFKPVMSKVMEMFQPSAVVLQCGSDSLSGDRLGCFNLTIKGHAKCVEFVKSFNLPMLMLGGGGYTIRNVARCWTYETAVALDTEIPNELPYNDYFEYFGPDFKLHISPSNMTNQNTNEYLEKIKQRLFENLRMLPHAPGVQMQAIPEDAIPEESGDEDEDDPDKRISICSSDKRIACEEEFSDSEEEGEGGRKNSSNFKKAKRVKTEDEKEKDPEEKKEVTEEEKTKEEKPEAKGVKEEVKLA

Row | IC50 (Recombinant human HDAC6) | IC50 (Human HDAC1) | IC50 (Human HDAC7) | Compound
1 | ≤ 500 nM | ≤ 10000 nM | ≤ 500 nM | NC(=O)c1ccc(N(Cc2ccc(-c3noc(C(F)(F)F)n3)s2)c2cnccn2)nn1 [Example DQ, 6-[(Pyrazin-2-yl)({5-[5-(trifluoromethyl)-1,2,4-oxadiazol-3-yl]thiophen-2-yl}methyl)amino]pyridazine-3-carboxamide]
2 | ≤ 500 nM | ≤ 10000 nM | ≤ 1000 nM | CC(C)(O)c1cnnc(N(Cc2ccc(-c3noc(C(F)(F)F)n3)s2)c2cnccn2)c1 [Example GS, 2-{6-[(Pyrazin-2-yl)({5-[5-(trifluoromethyl)-1,2,4-oxadiazol-3-yl]thiophen-2-yl}methyl)amino]pyridazin-4-yl}propan-2-ol]
3 | ≤ 10000 nM | > 10000 nM | ≤ 10000 nM | O=C(O)c1ccc(N(Cc2sc(-c3noc(C(F)(F)F)n3)cc2F)c2cnccn2)nn1 [Example EZ, 6-[({3-Fluoro-5-[5-(trifluoromethyl)-1,2,4-oxadiazol-3-yl]thiophen-2-yl}methyl)(pyrazin-2-yl)amino]pyridazine-3-carboxylic acid]
4 | ≤ 500 nM | > 10000 nM | ≤ 10000 nM | N#Cc1cnnc(N(Cc2ccc(-c3noc(C(F)(F)F)n3)s2)c2cnccn2)c1 [Example EE, 6-[(Pyrazin-2-yl)({5-[5-(trifluoromethyl)-1,2,4-oxadiazol-3-yl]thiophen-2-yl}methyl)amino]pyridazine-4-carbonitrile]
5 | ≤ 500 nM | > 10000 nM | ≤ 10000 nM | CC(F)(F)c1cnnc(N(Cc2ccc(-c3noc(C(F)(F)F)n3)s2)c2cnccn2)c1 [Example GU, 5-(1,1-Difluoroethyl)-N-(pyrazin-2-yl)-N-({5-[5-(trifluoromethyl)-1,2,4-oxadiazol-3-yl]thiophen-2-yl}methyl)pyridazin-3-amine]
6 | ≤ 500 nM | ≤ 10000 nM | ≤ 500 nM | O=C(c1ccc(N(Cc2ccc(-c3noc(C(F)(F)F)n3)s2)c2cnccn2)nn1)N1C[C@@H]2C[C@H]1C[S@@+]2[O-] [Example FR, (1S,2R,4S)-5-{6-[(Pyrazin-2-yl)({5-[5-(trifluoromethyl)-1,2,4-oxadiazol-3-yl]thiophen-2-yl}methyl)amino]pyridazine-3-carbonyl}-2-thia-5-azabicyclo[2.2.1]heptan-2-ium-2-olate]
7 | ≤ 500 nM | > 10000 nM | ≤ 500 nM | O=C(c1ccc(N(Cc2ccc(-c3noc(C(F)(F)F)n3)s2)c2cnccn2)nn1)N1CC(O)(C(F)(F)F)C1 [Example FK, 1-{6-[(Pyrazin-2-yl)({5-[5-(trifluoromethyl)-1,2,4-oxadiazol-3-yl]thiophen-2-yl}methyl)amino]pyridazine-3-carbonyl}-3-(trifluoromethyl)azetidin-3-ol]
8 | ≤ 500 nM | > 10000 nM | ≤ 500 nM | Cc1nccnc1N(Cc1ccc(-c2noc(C(F)(F)F)n2)s1)c1cnccn1 [Example BE, 3-Methyl-N-(pyrazin-2-yl)-N-({5-[5-(trifluoromethyl)-1,2,4-oxadiazol-3-yl]thiophen-2-yl}methyl)pyrazin-2-amine]
9 | ≤ 1000 nM | > 10000 nM | ≤ 10000 nM | NC(=O)c1nccnc1N(Cc1ccc(-c2noc(C(F)(F)F)n2)s1)c1cnccn1 [Example GO, 3-[(Pyrazin-2-yl)({5-[5-(trifluoromethyl)-1,2,4-oxadiazol-3-yl]thiophen-2-yl}methyl)amino]pyrazine-2-carboxamide]

The next lines start with the molecule.

Row | Compound | IC50 (Recombinant human HDAC6) | IC50 (Human HDAC1) | IC50 (Human HDAC7)
10 | CN(C(=O)c1cnnc(N(Cc2ccc(-c3noc(C(F)(F)F)n3)s2)c2cnccn2)c1)S(C)(=O)=O [Example GE, N-Methanesulfonyl-N-methyl-6-[(pyrazin-2-yl)({5-[5-(trifluoromethyl)-1,2,4-oxadiazol-3-yl]thiophen-2-yl}methyl)amino]pyridazine-4-carboxamide] | ≤ 500 nM | > 10000 nM | ≤ 1000 nM
11 | FC(F)(F)c1nc(-c2ccc(CN(c3cnccn3)c3cc(N4CCCC4)cnn3)s2)no1 [Example FQ, N-(Pyrazin-2-yl)-5-(pyrrolidin-1-yl)-N-({5-[5-(trifluoromethyl)-1,2,4-oxadiazol-3-yl]thiophen-2-yl}methyl)pyridazin-3-amine] | ≤ 1000 nM | > 10000 nM | ≤ 10000 nM
12 | FC(F)(F)c1cnnc(N(Cc2ccc(-c3noc(C(F)(F)F)n3)s2)c2cccnn2)c1 [Example ER, N-(Pyridazin-3-yl)-5-(trifluoromethyl)-N-({5-[5-(trifluoromethyl)-1,2,4-oxadiazol-3-yl]thiophen-2-yl}methyl)pyridazin-3-amine] | ≤ 500 nM | > 10000 nM | ≤ 10000 nM
13 | O=C(c1cnnc(N(Cc2ccc(-c3noc(C(F)(F)F)n3)s2)c2cnccn2)c1)N1CCCC1 [Example EA, N-(Pyrazin-2-yl)-5-(pyrrolidine-1-carbonyl)-N-({5-[5-(trifluoromethyl)-1,2,4-oxadiazol-3-yl]thiophen-2-yl}methyl)pyridazin-3-amine] | ≤ 500 nM | > 10000 nM | ≤ 10000 nM
14 | O=C(O)c1cnnc(N(Cc2ccc(-c3noc(C(F)(F)F)n3)s2)c2cc(C(F)(F)F)cnn2)c1 [Example ES, 6-[({5-[5-(Trifluoromethyl)-1,2,4-oxadiazol-3-yl]thiophen-2-yl}methyl)[5-(trifluoromethyl)pyridazin-3-yl]amino]pyridazine-4-carboxylicacid] | ≤ 500 nM | > 10000 nM | ≤ 10000 nM
15 | COC1(C(F)(F)F)CN(C(=O)c2cnnc(N(Cc3ccc(-c4noc(C(F)(F)F)n4)s3)c3cnccn3)c2)C1 [Example GL, 5-[3-Methoxy-3-(trifluoromethyl)azetidine-1-carbonyl]-N-(pyrazin-2-yl)-N-({5-[5-(trifluoromethyl)-1,2,4-oxadiazol-3-yl]thiophen-2-yl}methyl)pyridazin-3-amine] | ≤ 500 nM | ≤ 10000 nM | ≤ 10000 nM
16 | FC(F)(F)c1nc(-c2ccc(CN(c3cnccn3)c3cc(N4CCOCC4)cnn3)s2)no1 [Example FP, 5-(Morpholin-4-yl)-N-(pyrazin-2-yl)-N-({5-[5-(trifluoromethyl)-1,2,4-oxadiazol-3-yl]thiophen-2-yl}methyl)pyridazin-3-amine] | ≤ 500 nM | > 10000 nM | ≤ 10000 nM
17 | O=C(O)c1cnnc(N(Cc2sc(-c3noc(C(F)(F)F)n3)cc2F)c2cnccn2)c1 [Example FA, 6-[({3-fluoro-5-[5-(trifluoromethyl)-1,2,4-oxadiazol-3-yl]thiophen-2-yl}methyl)(pyrazin-2-yl)amino]pyridazine-4-carboxylic acid] | ≤ 500 nM | > 10000 nM | ≤ 1000 nM
